Source: US20130029970A1 (priority 2009, published 2013)
pEC50: −log10 of the molar value. Like-named read-outs stand apart in the source and are kept apart here.

Tests used:
human CB1 receptors = target: T1, human CB1 receptors (Homo sapiens, UniProt P21554); test: cAMP assay in HEK-293 cells, hCB1 agonist; format: cell-based; conditions: inhibition of forskolin-stimulated cAMP, HEK-293 cells; for pEC50: read-out: hCB1 EC50 (cAMP ag)
T1 construct: (cDNA clone) CNR01L000
Summary of the method: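 Stable hCB1 HEK-293 cells suspended in HBSS with 10 mM HEPES and 0.1% fatty acid-free BSA, incubated 30 min at 37° C. with compound plus forskolin (90 uM in the 3× compound solution). Lysed cAMP measured by enzyme-fragment kit; EC50 = 50% inhibition of forskolin-stimulated cAMP (forskolin maximum = 100%), sigmoidal fit.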

human CB2 receptors = target: T2, human CB2 receptors (Homo sapiens, UniProt P34972); test: cAMP assay in HEK-293 cells, hCB2 agonist; format: cell-based
T2 construct: (cDNA clone) CNR0200000
T2 sequence (P34972 whole entry): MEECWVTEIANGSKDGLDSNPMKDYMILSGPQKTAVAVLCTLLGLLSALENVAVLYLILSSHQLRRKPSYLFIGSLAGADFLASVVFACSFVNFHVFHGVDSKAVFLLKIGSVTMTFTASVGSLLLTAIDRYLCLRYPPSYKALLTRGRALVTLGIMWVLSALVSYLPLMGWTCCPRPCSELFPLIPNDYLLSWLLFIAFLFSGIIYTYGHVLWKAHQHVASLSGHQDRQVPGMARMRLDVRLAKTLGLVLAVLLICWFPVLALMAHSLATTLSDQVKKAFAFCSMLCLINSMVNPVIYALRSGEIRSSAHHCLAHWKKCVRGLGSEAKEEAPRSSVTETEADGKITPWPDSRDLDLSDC
Summary of the method: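 HEK-293 cells stably expressing human CB2, suspended at 1,500,000 cells/mL in HBSS with 10 mM HEPES and 0.1% fatty-acid-free BSA, exposed to test compound plus forskolin (90 uM in the 3× compound solution) for 30 min at 37° C.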

[1] = inhibition of forskolin-stimulated cAMP, HEK-293 cells, read-out: hCB2 EC50 (cAMP ag)

T1 sequence (P21554 whole entry): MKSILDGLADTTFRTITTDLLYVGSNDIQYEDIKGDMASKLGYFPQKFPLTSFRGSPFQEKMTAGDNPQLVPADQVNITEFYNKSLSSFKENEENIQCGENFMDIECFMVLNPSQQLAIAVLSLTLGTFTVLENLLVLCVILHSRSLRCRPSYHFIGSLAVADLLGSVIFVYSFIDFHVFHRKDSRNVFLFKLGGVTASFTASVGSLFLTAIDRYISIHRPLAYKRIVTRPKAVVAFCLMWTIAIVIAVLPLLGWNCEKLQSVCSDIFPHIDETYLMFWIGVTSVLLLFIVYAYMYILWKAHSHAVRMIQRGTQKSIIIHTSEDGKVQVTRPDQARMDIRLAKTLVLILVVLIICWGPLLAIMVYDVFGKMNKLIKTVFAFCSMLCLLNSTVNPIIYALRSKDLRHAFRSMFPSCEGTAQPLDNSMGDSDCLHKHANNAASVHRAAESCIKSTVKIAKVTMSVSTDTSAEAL

SMILES | pEC50 (human CB1 receptors) | pEC50 (human CB2 receptors) | hCB1 EC50 (cAMP ag, nM) (human CB1 receptors) | pEC50 (human CB2 receptors; [1])
COc1ccc(C(=O)c2cc3cc(C)n(CCN4CCOCC4)c3s2)c(C)c1 [Compound 88, (4-Methoxy-2-methylphenyl)(5-methyl-6-(2-morpholinoethyl)-6H-thieno[2,3-b]pyrrol-2-yl)methanone] | 6.00 to 7.00 | > 7.00 |  | 
CCOc1ccc(C(=O)c2cc3cc(C)n(CCN4CCOCC4)c3s2)c(F)c1 [Compound 89, (4-Ethoxy-2-fluorophenyl)(5-methyl-6-(2-morpholinoethyl)-6H-thieno[2,3-b]pyrrol-2-yl)methanone] | 5.00 to 6.00 | > 7.00 |  | 
COc1ccc(C(=O)c2cc3cc(C)n(CCN4CCCCC4)c3s2)c(Cl)c1 [Compound 90, (2-Chloro-4-methoxyphenyl)(5-methyl-6-(2-(piperidin-1-yl)ethyl)-6H-thieno[2,3-b]pyrrol-2-yl)methanone] | 6.00 to 7.00 | > 7.00 |  | 
COc1ccc(C(=O)c2cc3cc(C)n(CCN4CCCC4)c3s2)c(F)c1 [Compound 92, (2-Fluoro-4-methoxyphenyl)(5-methyl-6-(2-(pyrrolidin-1-yl)ethyl)-6H-thieno[2,3-b]pyrrol-2-yl)methanone] | 5.00 to 6.00 | > 7.00 |  | 
COc1ccc(C(=O)c2cc3cc(C)n(CCN4CCCC4)c3s2)c(Cl)c1 [Compound 93, (2-Chloro-4-methoxyphenyl)(5-methyl-6-(2-(pyrrolidin-1-yl)ethyl)-6H-thieno[2,3-b]pyrrol-2-yl)methanone] | 5.00 to 6.00 | > 7.00 |  | 
COc1ccc(C(=O)c2cc3cc(C)n(CCCNS(C)(=O)=O)c3s2)c(C)c1 [Compound 96, N-(3-(2-(4-Methoxy-2-methylbenzoyl)-5-methyl-6H-thieno[2,3-b]pyrrol-6-yl)propyl)methanesulfonamide] |  | > 7.00 | NS (NS means “Not Significant,” which means less than 30% agonist activity when compared to the positive control.) | 
COc1ccc(C(=O)c2cc3cc(C)n(CCN4CCCCC4)c3s2)c(F)c1 [Compound 98, (2-Fluoro-4-methoxyphenyl)(5-methyl-6-(2-(piperidin-1-yl)ethyl)-6H-thieno[2,3-b]pyrrol-2-yl)methanone] |  | > 7.00 | NS (NS means “Not Significant,” which means less than 30% agonist activity when compared to the positive control.) | 
COc1ccc(C(=O)c2cc3cc(C)n(CCN4CCCCC4)c3s2)c(O)c1 [Compound 99, (2-Hydroxy-4-methoxyphenyl)(5-methyl-6-(2-(piperidin-1-yl)ethyl)-6H-thieno[2,3-b]pyrrol-2-yl)methanone] |  | > 7.00 | NS (NS means “Not Significant,” which means less than 30% agonist activity when compared to the positive control.) | 
COc1ccc(C(O)c2cc3cc(C)n(CCN4CCOCC4)c3s2)cc1 (stereo not drawn) [Compound 100, (4-Methoxyphenyl)(5-methyl-6-(2-morpholinoethyl)-6H-thieno[2,3-b]pyrrol-2-yl)methanol] |  |  | NS (NS means “Not Significant,” which means less than 30% agonist activity when compared to the positive control.) | > 7.00
COc1ccc(C(C)(O)c2cc3cc(C)n(CCN4CCOCC4)c3s2)cc1 (stereo not drawn) [Compound 101, 1-(4-methoxyphenyl)-1-(5-methyl-6-(2-morpholinoethyl)-6H-thieno[2,3-b]pyrrol-2-yl)ethanol] |  |  | NS (NS means “Not Significant,” which means less than 30% agonist activity when compared to the positive control.) | > 7.00
COc1ccc(C(=O)c2cc3cc(C)n(CCCCNS(C)(=O)=O)c3s2)cc1 [Compound 102, N-(4-(2-(4-Methoxybenzoyl)-5-methyl-6H-thieno[2,3-b]pyrrol-6-yl)butyl)methanesulfonamide] |  |  | NS (NS means “Not Significant,” which means less than 30% agonist activity when compared to the positive control.) | > 7.00
COc1ccc(Cn2c(C)cc3cc(C(=O)c4ccc(OC)cc4)sc32)cc1 [Compound 103, (6-(4-Methoxybenzyl)-5-methyl-6H-thieno[2,3-b]pyrrol-2-yl)(4-methoxyphenyl)methanone] |  | 6.00 to 7.00 | NS (NS means “Not Significant,” which means less than 30% agonist activity when compared to the positive control.) | 
COc1ccc(C(=S)c2cc3cc(C)n(CCN4CCOCC4)c3s2)cc1 [Compound 104, (4-methoxyphenyl)(5-methyl-6-(2-morpholinoethyl)-6H-thieno[2,3-b]pyrrol-2-yl)methanethione] |  | 6.00 to 7.00 | NS (NS means “Not Significant,” which means less than 30% agonist activity when compared to the positive control.) | 
COc1ccc(C(=O)c2cc3cc(C)n(CCCNS(N)(=O)=O)c3s2)cc1 [Compound 105] |  | 5.00 to 6.00 | NS (NS means “Not Significant,” which means less than 30% agonist activity when compared to the positive control.) | 
Cc1cc2cc(C(=O)c3ccc4c(c3)OCO4)sc2n1CCN1CCOCC1 [Compound 106, Benzo[d][1,3]dioxol-5-yl(5-methyl-6-(2-morpholinoethyl)-6H-thieno[2,3-b]pyrrol-2-yl)methanone] |  | > 7.00 | NS (NS means “Not Significant,” which means less than 30% agonist activity when compared to the positive control.) | 
COc1ccc(C(=O)c2cc3cc(C)n(CCCNC(C)(C)C)c3s2)cc1 [Compound 108, (6-(3-(tert-Butylamino)propyl)-5-methyl-6H-thieno[2,3-b]pyrrol-2-yl)(4-methoxyphenyl)methanone] |  | 5.00 to 6.00 | NS (NS means “Not Significant,” which means less than 30% agonist activity when compared to the positive control.) | 
COc1ccc(C(=O)c2cc3cc(C)n(CCCNS(C)(=O)=O)c3s2)cn1 [Compound 109, N-(3-(2-(6-Methoxynicotinoyl)-5-methyl-6H-thieno[2,3-b]pyrrol-6-yl)propyl)methanesulfonamide] |  |  | NS (NS means “Not Significant,” which means less than 30% agonist activity when compared to the positive control.) | > 7.00
COc1ccc(C(=O)c2cc3cc(C)n(CCN4CCSCC4)c3s2)cc1 [Compound 110, (4-Methoxyphenyl)(5-methyl-6-(2-thiomorpholinoethyl)-6H-thieno[2,3-b]pyrrol-2-yl)methanone] | 5.00 to 6.00 | > 7.00 |  | 
Cc1cc2cc(C(=O)c3ccc(OC(C)C)cc3)sc2n1CCN1CCOCC1 [Compound 111, (4-Isopropoxyphenyl)(5-methyl-6-(2-morpholinoethyl)-6H-thieno[2,3-b]pyrrol-2-yl)methanone] |  | > 7.00 | NS (NS means “Not Significant,” which means less than 30% agonist activity when compared to the positive control.) | 
COc1ccc(C(=O)c2cc3cc(C)n(Cc4ccncc4)c3s2)cc1 [Compound 112, (4-Methoxyphenyl)(5-methyl-6-(pyridin-4-ylmethyl)-6H-thieno[2,3-b]pyrrol-2-yl)methanone] |  | 6.00 to 7.00 | NS (NS means “Not Significant,” which means less than 30% agonist activity when compared to the positive control.) | 
COc1ccc(C(=O)c2cc3cc(C)n(S(=O)(=O)N(C)C)c3s2)cn1 [Compound 113, 2-(6-Methoxynicotinoyl)-N,N,5-trimethyl-6H-thieno[2,3-b]pyrrole-6-sulfonamide] |  | > 7.00 | NS (NS means “Not Significant,” which means less than 30% agonist activity when compared to the positive control.) | 
COc1ccc(C(=O)c2cc3cc(C)n(Cc4ccccc4)c3s2)c(Cl)c1 [Compound 114, (6-Benzyl-5-methyl-6H-thieno[2,3-b]pyrrol-2-yl)(2-chloro-4-methoxyphenyl)methanone] | 5.00 to 6.00 |  |  | 5.00 to 6.00
CSc1ccc(C(=O)c2cc3cc(C)n(CCN4CCOCC4)c3s2)cc1 [Compound 115, (5-Methyl-6-(2-morpholinoethyl)-6H-thieno[2,3-b]pyrrol-2-yl)(4-(methylthio)phenyl)methanone] |  | 6.00 to 7.00 | NS (NS means “Not Significant,” which means less than 30% agonist activity when compared to the positive control.) | 
COc1ccc(C(=O)c2cc3cc(C)n(CCN4CCOCC4)c3s2)cc1Cl [Compound 116, (3-Chloro-4-methoxyphenyl)(5-methyl-6-(2-morpholinoethyl)-6H-thieno[2,3-b]pyrrol-2-yl)methanone] |  | > 7.00 | NS (NS means “Not Significant,” which means less than 30% agonist activity when compared to the positive control.) | 
COc1ccc(C(=O)c2cc3cc(C)n(CCN4CCCCC4)c3s2)cn1 [Compound 117, (6-Methoxypyridin-3-yl)(5-methyl-6-(2-(piperidin-1-yl)ethyl)-6H-thieno[2,3-b]pyrrol-2-yl)methanone] |  | > 7.00 | NS (NS means “Not Significant,” which means less than 30% agonist activity when compared to the positive control.) | 
CCc1ccc(C(=O)c2cc3cc(C)n(CCN4CCOCC4)c3s2)cc1 [Compound 122, (4-Ethylphenyl)(5-methyl-6-(2-morpholinoethyl)-6H-thieno[2,3-b]pyrrol-2-yl)methanone] | 5.00 to 6.00 | > 7.00 |  | 
Cc1cc2cc(C(=O)c3cccc(Cl)n3)sc2n1CCN1CCOCC1 [Compound 123, (6-Chloropyridin-2-yl)(5-methyl-6-(2-morpholinoethyl)-6H-thieno[2,3-b]pyrrol-2-yl)methanone] |  | > 7.00 | NS (NS means “Not Significant,” which means less than 30% agonist activity when compared to the positive control.) | 
